# Test results published in US7790188B2, “Antifungal protein and usage thereof” (Food Industry Research and Development Institute, priority 2006, dated 2010).
# Tests used:
# H. panici BCRC 35004 = assay: Antifungal activity assay (pathogen antagonistic dosage assay, paper discs on PDA plate); type: cell-based, Helminthosporium panici; details: 28° C.
# Description: (§1) The fungal strains for testing the antifungal activities of Monascus strains or isolated and purified antifungal protein, MAFP1, are selected from Helminthosporium panici BCRC 35004 and Paecilomyces variotii BCRC 33174. The fungal strains were inoculated on PDA (Potato Dextrose Agar, Difico Co.) culture plate and cultured at 25° C. for 7 to 14 days. Pathogen antagonistic dosage assays were conducted to confirm the antifungal activity of the purified MAFP1 protein. Fungal blocks of pathogenic fungi (P. variotii BCRC 33174 and H. panici BCRC 35004) were place in the center of PDA plates. 6 mm paper discs with different concentrations of MAFP1 solutions (containing 0 to 0.8 μg of purified MAFP1 protein) were placed surround the fungal block of pathogenic fungus. The plates were cultured at 28° C. and the growth inhibitions of the pathogenic fungi were observed.
# P. variotii BCRC 33174 = assay: as above; type: cell-based, Paecilomyces variotii; details: 28° C.
# Description: as §1
# [1] = discs with 0 to 0.8 μg MAFP1, PDA plate
substance,measurement,setting,value
"MAFP1: Antifungal protein of about 7 kDa purified from M. pilosus BCRC 38093 culture broth; mature form, SEQ ID NO: 3 (LSKYGGECSLQHNTCTYLKGGKNQVVHCGSAANQKCKSDRHHCEYDEHHKTVNCQTPV; listed as Monascus pilosus)",growth inhibition of H. panici,"H. panici BCRC 35004; 0.4 μg of purified MAFP1 protein on 6 mm paper disc, PDA plate",can significantly inhibit the growth
same,dependence of growth inhibition of pathogenic fungus on MAFP1 concentration,H. panici BCRC 35004; [1],"the higher the MAFP1 concentration, the stronger the inhibitory activity"
same,growth inhibition of P. variotii,"P. variotii BCRC 33174; 0.2 μg of purified MAFP1 protein on 6 mm paper disc, PDA plate",can significantly inhibit the growth
same,dependence of growth inhibition of pathogenic fungus on MAFP1 concentration,P. variotii BCRC 33174; [1],"the higher the MAFP1 concentration, the stronger the inhibitory activity"
